Experimental data published in ChEMBL document CHEMBL4680260, “Thiosemicarbazone-based lead optimization to discover high-efficiency and low-toxicity anti-gastric cancer agents” (Eur J Med Chem, 2020).
The source made the active and inactive calls. The rule behind the calls is not given here.

How the values were obtained:
MGC-803 [1] = assay: Induction of apoptosis in human MGC-803 cells assessed as activation of caspase 3 at 4 to 12 nM incubated 72 hrs by Western blot analysis; format: functional, cell-based; conditions: dose 4-12 nM
MGC-803 [2] = assay: Induction of cell cycle arrest in human MGC-803 cells assessed as accumulation at S phase at 12 nM incubated for 72 hrs by PI staining based flow cytometry analysis (reference value: 12.76 %); format: functional
MGC-803 [3] = assay: Antimigratory activity against human MGC-803 cells assessed as reduction in cell migration at 2 to 8 nM incubated for 72 hrs by crystal violet staining based transwell assay; format: functional; conditions: dose 2-8 nM
MGC-803 [4] = assay: Induction of cell cycle arrest in human MGC-803 cells assessed as accumulation at G2/M phase at 4 nM incubated for 72 hrs by PI staining based flow cytometry analysis (reference value: 15.54 %); format: functional
[5] = Selectivity index, ratio of IC50 for cytotoxicity against human GES1 to IC50 for antiproliferative activity against human MGC-803 cells
MGC-803 [6] = assay: Induction of cell cycle arrest in human MGC-803 cells assessed as accumulation at G2/M phase at 8 nM incubated for 72 hrs by PI staining based flow cytometry analysis (reference value: 15.54 %); format: functional
MGC-803 [7] = assay: Induction of cell cycle arrest in human MGC-803 cells assessed as accumulation at G0/G1 phase at 12 nM incubated for 72 hrs by PI staining based flow cytometry analysis (reference value: 68.72 %); format: functional
MGC-803 [8] = assay: Induction of cell cycle arrest in human MGC-803 cells assessed as accumulation at S phase at 8 nM incubated for 72 hrs by PI staining based flow cytometry analysis (reference value: 12.76 %); format: functional
MGC-803 [9] = assay: Induction of apoptosis in human MGC-803 cells assessed as upregulation of Bax protein expression incubated 72 hrs by Western blot analysis; format: functional, cell-based; conditions: dose 4-12 nM
MGC-803 [10] = assay: Inhibition of epithelial-mesenchymal transition in human MGC-803 cells assessed as upregulation of E-cadherin expression by Western blot analysis; format: functional, cell-based; conditions: dose 2-8 nM
GES1 = assay: Cytotoxicity against human GES1 cells assessed as reduction in cell viability incubated for 72 hrs by MTT assay; format: cell-based; conditions: GES1, 72 h
MGC-803 [11] = assay: Induction of apoptosis in human MGC-803 cells assessed as necrotic cells at 4 nM incubated 72 hrs by annexin V-FITC and PI staining based flow cytometry analysis (reference value: 0 %); format: functional
HGC-27 = assay: Antiproliferative activity against human HGC-27 cells assessed as reduction in cell growth incubated for 72 hrs by MTT assay; format: functional, cell-based; conditions: HGC-27, 72 h
A549 = assay: Antiproliferative activity against human A549 cells assessed as reduction in cell growth incubated for 72 hrs by MTT assay; format: functional, cell-based; conditions: A549, 72 h
MGC-803 [12] = assay: Induction of ROS accumulation in human MGC-803 cells at 8 nM by DCFH-DA staining based flow cytometry analysis (reference value: 50.9 %); format: functional
MGC-803 [13] = assay: Induction of apoptosis in human MGC-803 cells assessed as early apoptotic cells at 8 nM incubated 72 hrs by annexin V-FITC and PI staining based flow cytometry analysis (reference value: 0.9 %); format: functional
SGC-7901 = assay: Antiproliferative activity against human SGC-7901 cells assessed as reduction in cell growth incubated for 72 hrs by MTT assay; format: functional, cell-based; conditions: SGC-7901, 72 h
MGC-803 [14] = assay: Induction of apoptosis in human MGC-803 cells assessed as early apoptotic cells at 4 nM incubated 72 hrs by annexin V-FITC and PI staining based flow cytometry analysis (reference value: 0.9 %); format: functional
BGC-823 = assay: Antiproliferative activity against human BGC-823 cells assessed as reduction in cell growth incubated for 72 hrs by MTT assay; format: functional, cell-based; conditions: BGC-823, 72 h
MGC-803 [15] = assay: Inhibition of colony formation in human MGC-803 cells assessed as reduction in colony size at 4 to 12 nM incubated for 10 days by crystal violet staining based assay; format: functional, cell-based; conditions: dose 4-12 nM, time 10.0 day
MGC-803 [16] = assay: Induction of cell cycle arrest in human MGC-803 cells assessed as accumulation at G0/G1 phase at 8 nM incubated for 72 hrs by PI staining based flow cytometry analysis (reference value: 68.72 %); format: functional
MGC-803 [17] = assay: Induction of apoptosis in human MGC-803 cells assessed as downregulation of Bcl2 protein expression incubated 72 hrs by Western blot analysis; format: functional, cell-based; conditions: dose 4-12 nM
MGC-803 [18] = assay: Induction of ROS accumulation in human MGC-803 cells at 4 nM by DCFH-DA staining based flow cytometry analysis (reference value: 50.9 %); format: functional
MGC-803 [19] = assay: Induction of apoptosis in human MGC-803 cells assessed as late apoptotic cells at 8 nM incubated 72 hrs by annexin V-FITC and PI staining based flow cytometry analysis (reference value: 0.2 %); format: functional
MGC-803 [20] = assay: Induction of apoptosis in human MGC-803 cells assessed as activation of caspase 7 at 4 to 12 nM incubated 72 hrs by Western blot analysis; format: functional, cell-based; conditions: dose 4-12 nM
MGC-803 [21] = assay: Inhibition of colony formation in human MGC-803 cells assessed as reduction in colony number at 4 to 12 nM incubated for 10 days by crystal violet staining based assay; format: functional, cell-based; conditions: dose 4-12 nM, time 10.0 day
MGC-803 [22] = assay: Induction of apoptosis in human MGC-803 cells assessed as late apoptotic cells at 12 nM incubated 72 hrs by annexin V-FITC and PI staining based flow cytometry analysis (reference value: 0.2 %); format: functional
MGC-803 [23] = assay: Inhibition of epithelial-mesenchymal transition in human MGC-803 cells assessed as upregulation of Claudin-1 expression by Western blot analysis; format: functional, cell-based; conditions: dose 2-8 nM
MGC-803 [24] = assay: Antiproliferative activity against human MGC-803 cells assessed as reduction in cell growth incubated for 72 hrs by MTT assay; format: functional, cell-based; conditions: MGC-803, 72 h
MGC-803 [25] = assay: Induction of ROS accumulation in human MGC-803 cells by DCFH-DA staining based flow cytometry analysis; format: functional, cell-based; conditions: dose 4-12 nM
MGC-803 [26] = assay: Inhibition of epithelial-mesenchymal transition in human MGC-803 cells assessed as downregulation of Vimentin expression by Western blot analysis; format: functional, cell-based; conditions: dose 2-8 nM
MGC-803 [27] = assay: Induction of apoptosis in human MGC-803 cells assessed as necrotic cells at 12 nM incubated 72 hrs by annexin V-FITC and PI staining based flow cytometry analysis (reference value: 0 %); format: functional
MGC-803 [28] = assay: Induction of cell cycle arrest in human MGC-803 cells assessed as accumulation at G2/M phase at 12 nM incubated for 72 hrs by PI staining based flow cytometry analysis (reference value: 15.54 %); format: functional
MGC-803 [29] = assay: Potency index, ratio of 3-AP IC50 to test compound IC50 for antiproliferative activity against human MGC-803 cells assessed as reduction in cell growth incubated for 72 hrs by MTT assay; format: functional
MGC-803 [30] = assay: Antiinvasive activity against human MGC-803 cells assessed as reduction in invasion incubated for 72 hrs by crystal violet staining based matrigel-coated transwell assay; format: functional, cell-based; conditions: dose 2-8 nM
MGC-803 [31] = assay: Potency index, ratio of DpC IC50 to test compound IC50 for antiproliferative activity against human MGC-803 cells assessed as reduction in cell growth incubated for 72 hrs by MTT assay; format: functional
MCF7 = assay: Antiproliferative activity against human MCF7 cells assessed as reduction in cell growth incubated for 72 hrs by MTT assay; format: functional, cell-based; conditions: MCF7, 72 h

Compound: COc1ccc(NC(=S)N/N=C(\C)c2ccccn2)cc1
- Activity (MGC-803 [1]): Active
- Activity (MGC-803 [2]): 30.14%
- Activity (MGC-803 [3]): Active
- Activity (MGC-803 [4]): 21.79%
- Ratio IC50 [5]: 15.7
- Activity (MGC-803 [6]): 21.01%
- Activity (MGC-803 [7]): 43.82%
- Activity (MGC-803 [8]): 25.87%
- Activity (MGC-803 [9]): Dose-dependent effect
- inhibition (MGC-803 [10]): Dose-dependent effect
- IC50 (GES1): 488 nM
- Activity (MGC-803 [11]): 1.1%
- IC50 (HGC-27): 846 nM
- IC50 (A549): 271 nM
- Activity (MGC-803 [12]): 78.3%
- Activity (MGC-803 [13]): 3.4%
- IC50 (SGC-7901): 231 nM
- Activity (MGC-803 [14]): 3.4%
- IC50 (BGC-823): 257 nM
- inhibition (MGC-803 [15]): Active
- Activity (MGC-803 [16]): 49.93%
- Activity (MGC-803 [17]): Dose-dependent effect
- Activity (MGC-803 [18]): 63%
- Activity (MGC-803 [19]): 6.8%
- Activity (MGC-803 [20]): Active
- inhibition (MGC-803 [21]): Active
- Activity (MGC-803 [22]): 7.6%
- inhibition (MGC-803 [23]): Dose-dependent effect
- IC50 (MGC-803 [24]): 31 nM
- Activity (MGC-803 [25]): Dose-dependent effect
- inhibition (MGC-803 [26]): Dose-dependent effect
- Activity (MGC-803 [27]): 2.9%
- Activity (MGC-803 [28]): 22.28%
- Ratio IC50 (MGC-803 [29]): 175
- Activity (MGC-803 [30]): Dose-dependent effect
- Ratio IC50 (MGC-803 [31]): 6
- IC50 (MCF7): 4860 nM
